Results published in the NIST ThermoML archive (doi:10.1016/j.jct.2009.05.009).

Test: xn = mol fraction of the nth substance listed
Details: 101.3 kPa, Liquid, Vibrating tube method

CCOS(=O)(=O)[O-].CCn1cc[n+](C)c1 [1-ethyl-3-methylimidazolium ethyl sulfate] + O
mass density [kg/m3]
Details	293.15 K	298.15 K	303.15 K	308.15 K	313.15 K	318.15 K
x2 = 0	1242.4	1239.4	1236.3	1233.3	1230.2	1227.2
x2 = 0.0514	1241.4	1238.3	1235.2	1232.2	1229.1	1226.1
x2 = 0.13	1239.8	1236.8	1233.6	1230.6	1227.4	1224.4
x2 = 0.1783	1238.8	1235.7	1232.6	1229.5	1226.3	1223.3
x2 = 0.2168	1237.8	1234.7	1231.5	1228.5	1225.4	1222.3
x2 = 0.2642	1236.4	1233.3	1230.2	1227.1	1223.9	1220.8
x2 = 0.3054	1235	1232	1228.8	1225.8	1222.6	1219.5
x2 = 0.3568	1233	1230	1226.9	1223.9	1220.7	1217.6
x2 = 0.4008	1231.2	1228	1225	1221.9	1218.7	1215.6
x2 = 0.4613	1228.1	1225.2	1222	1218.9	1215.6	–
x2 = 0.5002	1225.9	1222.9	1219.7	1216.6	1213.4	–
x2 = 0.5584	1221.8	1218.8	1215.6	1212.4	1209.2	–
x2 = 0.6124	1217.1	1213.9	1210.8	1207.6	1204.4	–
x2 = 0.6698	1210.7	1207.4	1204.1	1200.9	1197.6	–
x2 = 0.7125	1204.3	1200.8	1197.6	1194.3	1190.9	–
x2 = 0.7635	1194.2	1190.4	1187.1	1184	1180.6	–
x2 = 0.8006	1184.2	1180.5	1177.2	1173.6	1170.3	–
x2 = 0.8497	1165.4	1162.1	1158.8	1155.5	1152.3	–
x2 = 0.8963	1139.3	1135.6	1132.8	1129	1126	–
